Experimental data published in US20070123699A1, “Peptide conjugate useful for cell nucleus molecular imaging and tumor therapy” (priority 2002, published 2007).

Legend:
[1] = i.v. administered alkylating drug, brain tumor; cited from earlier work
[2] = test system: DU-145 prostate cancer cells; assay: MRI: DU-145 cell uptake and efflux of Gd^3+ conjugates (T1-weighted signal, relaxivity); assay type: cell-based, human
Experimental: (I) MRI: DU-145 Cell Uptake of the CNN—Gd^3+-Complex and CNRN—Gd^3+-Complex Compared to that of Magnevist®
DU-145 cells were harvested and divided into tubes (Falcon®, Becton Dickinson USA, Cat. No.: 35.2096) (Cell No.: 40×10^6 cells per tube). The CNN—Gd^3+-complex (Table 1, #1552a), the CNRN—Gd^3+-complex (Table 1, #1552b) and the Magnevist® were each dissolved in MEM in a concentration of 0.5 mM and were then incubated for 10, 20, 30 minutes up to 3 hours. […]
MR imaging used a 1.5-T whole body Siemens Magnetom Vision Plus with a standard circular polarized head coil. […] T1 and T2 relaxation-times within the pellets of the three tubes (CNN—Gd^3+, CNRN—Gd^3+, Magnevist) were measured to evaluate the intracellular relaxivity of the respective contrast agents (R=1/T1). The T1-relaxation time was measured by means of an inversion-recovery-sequence (TR: 5000 ms/TE: 76 ms/TI: 25-4000 ms, 17 different TI-values, scan-time 15×25 sec, FOV: 160 mm×160 mm, Matrix: 132×256, slice thickness: 7 mm, pixel size: 1.21×0.63 mm). T2 relaxation-time was measured by a multi-echo-sequence (TR: 5000 ms/16 TE-values: 30 ms-245 ms, FOV: 250 mm×250 mm, Matrix: 256×256, slice thickness: 5 mm, pixel size: 0.98×0.98 mm, scan time: 21 min 21 sec). […]

| Compound | fraction of drug in the blood passing the blood-brain barrier [1] | MRI signal change above that of DU-145 cells incubated solely in MEM ([2]; DU-145 cells, 0.5 mM, T1-weighted MRI) | relaxivity R (R=1/T1) within the DU-145 cell pellets ([2]; after incubation with contrast agent 0.5 mM) |
| --- | --- | --- | --- |
| Cn1nnc2c(C(N)=O)ncn2c1=O [Temodal] | about 30% |  |  |
| CNC[C@H](O)[C@@H](O)[C@H](O)[C@H](O)CO.CNC[C@H](O)[C@@H](O)[C@H](O)[C@H](O)CO.O=C([O-])CN(CCN(CC(=O)[O-])CC(=O)O)CCN(CC(=O)[O-])CC(=O)O.[Gd+3] [Magnevist, reference compound] |  | no signal change | 0.00069 |
